Experimental data reported in patent publication US11530388B2, “Methods of engineering human induced pluripotent stem cells to produce liver tissue” (University of Pittsburgh—Of the Commonwealth System of …, priority 2017, dated 2022).

What was measured:
[1] = tested on: pMSCV-F-del Casp9-IRES-GFP transfected HEK293 cells (iCasp9); assay: Caspase 3/7 Assay after AP1903 stimulation of iCasp9-transfected cells; format: cell-based, human; conditions: compared to ethanol stimulated cells, 0, 0.1, 1, 10 nmol/l tested, 24 h end point
Text: Because repopulated rat livers with human iPS-Heps can be reconstituted with both rodent cells and human cells, systems to maximize the human component to 100% of the livers and to purify human cells after perfusion/isolation of livers are beneficial. Suicide systems can be designed to potentiate these processes by efficiently inducing apoptosis in transduce cells. An inducible caspase-9 (iCasp9), encoded by a suicide gene engineered from human caspase-9, was incorporated. […]
HEK293 cells are transfected with pMSCV-F-del-Casp9_IRES-GFP (Addgene). • To assess transfection efficiency, cells are co-transfected with a TagRFP control plasmid ( 1/10 of total amount of DNA). • On day 3 transfected cells and negative control are monitored, counted and seeded (1E04 cells/96-well) for Caspase 3/7 Assay (Promega; G8091) Per Transfection/Negative Control cells were seeded as follows: • Per concentration small molecule (chemical inducer of dimerization) AP1903 (ApexBio) two wells, the same amount for negative control. […] T=0 h was measured immediately and T=24 h is measured as end point. (FIG. 13) • iCasp9-IRES-GFP construct is cloned with the rat albumin promoter pEAlb123. • iCasp9 expression (mRNA) is quantified in H4-II-E-C3 by qRT-PCR. […]

[2] = tested on: Untransfected HEK293 cells; assay: Caspase 3/7 Assay after AP1903 stimulation of untransfected control cells; format: cell-based, human; conditions: untransfected HEK293 cells treated with AP1903
Protocol: HEK293 cells are transfected with pMSCV-F-del-Casp9_IRES-GFP (Addgene). • To assess transfection efficiency, cells are co-transfected with a TagRFP control plasmid ( 1/10 of total amount of DNA). • On day 3 transfected cells and negative control are monitored, counted and seeded (1E04 cells/96-well) for Caspase 3/7 Assay (Promega; G8091) Per Transfection/Negative Control cells were seeded as follows: • Per concentration small molecule (chemical inducer of dimerization) AP1903 (ApexBio) two wells, the same amount for negative control. For shuttle control, also wells per concentration are seeded. • On day 4, stimulation with AP1903 starts (0; 0,1; 1; 10 nmol/1). Shuttle control includes cells treated with ethanol only. T=0 h was measured immediately and T=24 h is measured as end point. (FIG. 13) • iCasp9-IRES-GFP construct is cloned with the rat albumin promoter pEAlb123. • iCasp9 expression (mRNA) is quantified in H4-II-E-C3 by qRT-PCR. Cells are transfected with plasmids pEAlb123-iCasp9-IRES-GFP and pcDNA3-CMV-eGFP (positive control). • Cells are harvested and RNA is isolated. iCASP9 and eGFP-specific PCR primers are used to measure expression (FIG. 14).

## CC[C@@H](C(=O)N1CCCC[C@H]1C(=O)O[C@@H](CCc1ccc(OC)c(OC)c1)c1cccc(OCC(=O)NCCNC(=O)COc2cccc([C@@H](CCc3ccc(OC)c(OC)c3)OC(=O)[C@@H]3CCCCN3C(=O)[C@H](CC)c3cc(OC)c(OC)c(OC)c3)c2)c1)c1cc(OC)c(OC)c(OC)c1 [AP1903]
[1]
  AP1903 concentration giving maximum effect in Caspase 3/7 Assay: 1 nmol/L
[2]
  effect of AP1903 in Caspase 3/7 Assay: did not show any effect
